# According to US20240140938A1, “PREPARATION OF TETRAHYDROINDAZOLE DERIVATIVES AS NOVEL DIACYLGLYCERIDE O-ACYLTRANSFERASE 2 INHIBITORS” (MERCK SHARP & DOHME LLC, priority 2020, published 2024):
# Target: human DGAT2 (hDGAT2) (Homo sapiens (Human), UniProt Q96PD7)
# Assay: DGAT2 Enzymatic Activity Assay
# Type: biochemical
# Conditions: hDGAT2 Sf-9 membrane prep; 13C18-triolein product by LC/MS/MS; 25 μM diolein, 5 μM 13C oleoyl-CoA
# Experimental: Sf-9 insect cells were maintained in Grace's insect cell culture medium with 10% heated-inactivated fetal bovine serum, 1% Pluronic F-68 and 0.14 μg/ml Kanamycine sulfate at 27° C. in a shaker incubator. After infection with untagged baculovirus expressing human DGAT2 (hDGAT2) at multiplicity of infection (MOI) 3 for 48 hours, cells were harvested. Cell pellets were suspended in buffer containing 10 mM Tris-HCl pH 7.5, 1 mM EDTA, 250 mM sucrose and Complete Protease Inhibitor Cocktail (Sigma Aldrich), and sonicated on ice. Cell debris were removed by centrifugation at 2000×g for 15 minutes. Membrane fractions were isolated by ultracentrifugation (100,000×g), resuspended in the same buffer, and frozen (−80° C.) for later use. The protein concentration was determined with the Pierce™ BCA Protein Assay Kit (Thermo Fisher Scientific).
# LC/MS/MS analyses were performed using Thermal Fisher's LX4-TSQ Vantage system. This system consists of an Agilent binary high-performance liquid chromatography (HPLC) pump and a TSQ Vantage triple quadrupole MS/MS instrument. For each sample, 2 μL samples from the top organic layer of in-plate liquid-liquid extraction were injected onto a Thermo Betabasic C4 column (2.1 mm×20 mm, 5 μm particle size). The samples were then eluted using the following conditions; mobile phase: Isopropanol: acetonitrile/10 mM ammonium formate=50/35/15 (v/v/v), flow rate: 0.8 mL/min, temperature: 25° C. Data was acquired in positive mode using a heated electrospray ionization (HESI) interface. […] The peak area was integrated by Xcalibur Quan software. The ratio between the ^13C18triolein generated in the reaction and spiked in internal standard ^13C21-triolein was used to generate percentage inhibition and IC50 values. Compound percentage inhibition was calculated by the following formula: Inhibition %=1−[(compound response−low control)/(high control−low control)]×100%.
# DGAT2 activity was determined by measuring the amount of enzymatic product ^13C18-triolein (^13C-1,2,3-Tri(cis-9-octadecenoyl)glycerol) using the membrane prep mentioned above. The assay was carried out in ABgene 384-well assay plates in a final volume of 25 μL at rt.
# Sequence of human DGAT2 (hDGAT2) (Q96PD7 whole entry): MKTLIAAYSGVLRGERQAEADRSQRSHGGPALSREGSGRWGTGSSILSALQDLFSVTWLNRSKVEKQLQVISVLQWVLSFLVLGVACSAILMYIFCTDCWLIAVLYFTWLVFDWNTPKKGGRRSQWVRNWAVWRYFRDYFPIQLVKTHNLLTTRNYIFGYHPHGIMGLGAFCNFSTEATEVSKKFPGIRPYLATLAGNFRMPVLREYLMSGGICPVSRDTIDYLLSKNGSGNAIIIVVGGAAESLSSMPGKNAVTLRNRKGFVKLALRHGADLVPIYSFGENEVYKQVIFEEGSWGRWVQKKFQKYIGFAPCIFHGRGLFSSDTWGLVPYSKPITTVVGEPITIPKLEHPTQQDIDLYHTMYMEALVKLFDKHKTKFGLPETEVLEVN
row,SMILES,IC50 [nM]
1,"C[C@]1(NC(=O)[C@@H]2CCc3c(-c4cccc(OC(F)F)c4)nn(-c4ccc(F)cn4)c3C2)CCS(=O)(=O)C1 [Example 3, (R)-3-(3-(difluoromethoxy)phenyl)-1-(5-fluoropyridin-2-yl)-N-((S)-3-methyl-1,1-dioxidotetrahydrothiophen-3-yl)-4,5,6,7-tetrahydro-1H-indazole-6-carboxamide]",4.9
2,"C[C@]1(NC(=O)C2CCc3c(-c4cncc(OC(F)F)c4)nn(-c4nnc(C5CC5)s4)c3C2)CCS(=O)(=O)C1 (stereo partly drawn) [Example 5, 1-(5-cyclopropyl-1,3,4-thiadiazol-2-yl)-3-(5-(difluoromethoxy)pyridin-3-yl)-N-((S)-3-methyl-1,1-dioxidotetrahydrothiophen-3-yl)-4,5,6,7-tetrahydro-1H-indazole-6-carboxamide]",542
3,"CC1(NC(=O)[C@@H]2CCc3c(-c4cccc(OC(F)F)c4)nn(-c4ccc(F)cn4)c3C2)CC(F)(F)C1 [Example 7, (R)-N-(3,3-difluoro-1-methylcyclobutyl)-3-(3-(difluoromethoxy)phenyl)-1-(5-fluoropyridin-2-yl)-4,5,6,7-tetrahydro-1H-indazole-6-carboxamide]",12
4,"CC1(NC(=O)[C@@H]2CCc3c(-c4cncc(OC(F)F)c4)nn(-c4ccc(F)cn4)c3C2)CS(=O)(=O)C1 [Example 12, (R)-3-(5-(difluoromethoxy)pyridin-3-yl)-1-(5-fluoropyridin-2-yl)-N-(3-methyl-1,1-dioxidothietan-3-yl)-4,5,6,7-tetrahydro-1H-indazole-6-carboxamide]",65.8
5,"C[C@]1(NC(=O)[C@@H]2CCc3c(-c4cccc(C5CC(F)(F)C5)c4)nn(-c4ccc(F)cc4)c3C2)CCS(=O)(=O)C1 [Example 13, (R)-3-(3-(3,3-difluorocyclobutyl)phenyl)-1-(4-fluorophenyl)-N-((S)-3-methyl-1,1-dioxidotetrahydrothiophen-3-yl)-4,5,6,7-tetrahydro-1H-indazole-6-carboxamide]",20
6,"C[C@]1(NC(=O)[C@@H]2CCc3c(-c4cncc(OC(F)F)c4)nn(-c4ccc(F)cn4)c3C2)CCS(=O)(=O)C1 [Example 14, (R)-3-(5-(difluoromethoxy)pyridin-3-yl)-1-(5-fluoropyridin-2-yl)-N-((S)-3-methyl-1,1-dioxidotetrahydrothiophen-3-yl)-4,5,6,7-tetrahydro-1H-indazole-6-carboxamide]",13.9
7,"O=C(N[C@@H]1CCC[C@H]1N1CCOCC1)C1CCc2c(-c3cccc(OC(F)F)c3)nn(-c3ccc(F)cn3)c2C1 (stereo partly drawn) [Example 16, 3-(3-(difluoromethoxy)phenyl)-1-(5-fluoropyridin-2-yl)-N-((1R,2R)-2-morpholinocyclopentyl)-4,5,6,7-tetrahydro-1H-indazole-6-carboxamide]",66.9
8,"C[C@]1(NC(=O)[C@@H]2CCc3c(-c4cccc(C5(F)CC5)c4)nn(-c4ccc(F)cc4)c3C2)CCS(=O)(=O)C1 [Example 17, (R)-3-(3-(1-fluorocyclopropyl)phenyl)-1-(4-fluorophenyl)-N-((S)-3-methyl-1,1-dioxidotetrahydrothiophen-3-yl)-4,5,6,7-tetrahydro-1H-indazole-6-carboxamide]",70.7
9,"CC(C)(N)c1cccc(-c2nn(-c3ccc(F)cc3)c3c2CC[C@@H](C(=O)N[C@@]2(C)CCS(=O)(=O)C2)C3)c1 [Example 18, (R)-3-(3-(2-aminopropan-2-yl)phenyl)-1-(4-fluorophenyl)-N-((S)-3-methyl-1,1-dioxidotetrahydrothiophen-3-yl)-4,5,6,7-tetrahydro-1H-indazole-6-carboxamide]",> 10000
10,"C[C@]1(NC(=O)[C@@H]2CCc3c(-c4cncc(OC(F)F)n4)nn(-c4ccc(F)cn4)c3C2)CCS(=O)(=O)C1 [Example 19, (R)-3-(6-(difluoromethoxy)pyrazin-2-yl)-1-(5-fluoropyridin-2-yl)-N-((S)-3-methyl-1,1-dioxidotetrahydrothiophen-3-yl)-4,5,6,7-tetrahydro-1H-indazole-6-carboxamide]",> 10000
11,"Cn1nccc1-c1nn(-c2ccc(F)cn2)c2c1CC[C@@H](C(=O)N[C@@]1(C)CCS(=O)(=O)C1)C2 [Example 20, (R)-1-(5-fluoropyridin-2-yl)-N-((S)-3-methyl-1,1-dioxidotetrahydrothiophen-3-yl)-3-(1-methyl-1H-pyrazol-5-yl)-4,5,6,7-tetrahydro-1H-indazole-6-carboxamide]",8430
12,"CC(C)n1nc(-c2cc(OC(F)F)ncc2F)c2c1C[C@H](C(=O)NC1(C)CCS(=O)(=O)CC1)CC2 [Example 21, (R)-3-(2-(difluoromethoxy)-5-fluoropyridin-4-yl)-1-isopropyl-N-(4-methyl-1,1-dioxidotetrahydro-2H-thiopyran-4-yl)-4,5,6,7-tetrahydro-1H-indazole-6-carboxamide]",43.8
13,"CCOc1cc(-c2nn(C(C)C)c3c2CC[C@@H](C(=O)NC2(C)CCS(=O)(=O)CC2)C3)c(F)cn1 [Example 22, (R)-3-(2-ethoxy-5-fluoropyridin-4-yl)-1-isopropyl-N-(4-methyl-1,1-dioxidotetrahydro-2H-thiopyran-4-yl)-4,5,6,7-tetrahydro-1H-indazole-6-carboxamide]",144
14,"CC(C)n1nc(-c2cc(OC(F)F)ccc2F)c2c1C[C@H](C(=O)N[C@@]1(C)CCS(=O)(=O)C1)CC2 [Example 28, (R)-3-(5-(difluoromethoxy)-2-fluorophenyl)-1-isopropyl-N-((S)-3-methyl-1,1-dioxidotetrahydrothiophen-3-yl)-4,5,6,7-tetrahydro-1H-indazole-6-carboxamide]",30.1

# Further lines, results first:
row,IC50 [nM],SMILES
1,5.1,"CC1(NC(=O)[C@@H]2CCc3c(-c4cccc(OC(F)F)c4)nn(-c4ccc(F)cn4)c3C2)CS(=O)(=O)C1 [Example 4, (R)-3-(3-(difluoromethoxy)phenyl)-1-(5-fluoropyridin-2-yl)-N-(3-methyl-1,1-dioxidothietan-3-yl)-4,5,6,7-tetrahydro-1H-indazole-6-carboxamide]"
2,10.2,"CC1(NC(=O)[C@@H]2CCc3c(-c4cccc(OC(F)F)c4)nn(-c4ncc(F)cc4F)c3C2)CS(=O)(=O)C1 [Example 9, (R)-3-(3-(difluoromethoxy)phenyl)-1-(3,5-difluoropyridin-2-yl)-N-(3-methyl-1,1-dioxidothietan-3-yl)-4,5,6,7-tetrahydro-1H-indazole-6-carboxamide]"
3,37,"C[C@]1(NC(=O)C2CCc3c(-c4cccc(OC(F)F)c4)nn(-c4ncc(Cl)cn4)c3C2)CCS(=O)(=O)C1 (stereo partly drawn) [Example 10, 1-(5-chloropyrimidin-2-yl)-3-(3-(difluoromethoxy)phenyl)-N-((S)-3-methyl-1,1-dioxidotetrahydrothiophen-3-yl)-4,5,6,7-tetrahydro-1H-indazole-6-carboxamide]"
4,169,"CC1(NC(=O)[C@@H]2CCc3c(-c4cccc(OC(F)F)c4)nn(C4CCOCC4)c3C2)CS(=O)(=O)C1 [Example 23, (R)-3-(3-(difluoromethoxy)phenyl)-N-(3-methyl-1,1-dioxidothietan-3-yl)-1-(tetrahydro-2H-pyran-4-yl)-4,5,6,7-tetrahydro-1H-indazole-6-carboxamide]"
5,144,"C[C@]1(NC(=O)[C@@H]2CCc3c(-c4cccc(OC(F)F)c4)nn(C4CCS(=O)(=O)CC4)c3C2)CCS(=O)(=O)C1 [Example 24, (R)-3-(3-(difluoromethoxy)phenyl)-1-(1,1-dioxidotetrahydro-2H-thiopyran-4-yl)-N-((S)-3-methyl-1,1-dioxidotetrahydrothiophen-3-yl)-4,5,6,7-tetrahydro-1H-indazole-6-carboxamide]"
6,59.8,"CC(C)n1nc(-c2cccc(OC(F)F)c2)c2c1C[C@H](C(=O)N[C@@]1(C)CCS(=O)(=O)C1)CC2 [Example 25, (R)-3-(3-(difluoromethoxy)phenyl)-1-isopropyl-N-((S)-3-methyl-1,1-dioxidotetrahydrothiophen-3-yl)-4,5,6,7-tetrahydro-1H-indazole-6-carboxamide]"
7,128,"CC(C)(NC(=O)[C@@H]1CCc2c(-c3cccc(OC(F)F)c3)nn(C3CCOCC3)c2C1)c1ccc(C(F)(F)F)nc1 [Example 27, (R)-3-(3-(difluoromethoxy)phenyl)-1-(tetrahydro-2H-pyran-4-yl)-N-(2-(6-(trifluoromethyl)pyridin-3-yl)propan-2-yl)-4,5,6,7-tetrahydro-1H-indazole-6-carboxamide]"

# Same assay, conditions: unit given as nm; hDGAT2 Sf-9 membrane prep; 13C18-triolein product by LC/MS/MS
row,IC50 [nM],SMILES
1,37.9,"CC1(NC(=O)C2CCc3c(-c4ccccc4Cl)nn(-c4ccc(F)cc4)c3C2)CCS(=O)(=O)C1 (stereo not shown) [Example 1, 3-(2-chlorophenyl)-1-(4-fluorophenyl)-N-(3-methyl-1,1-dioxidotetrahydrothiophen-3-yl)-4,5,6,7-tetrahydro-1H-indazole-6-carboxamide]"
